Data on one substance can be found in publication PMC6337261, “Short Peptides with Uncleavable Peptide Bond Mimetics as Photoactivatable Caspase-3 Inhibitors” (Molecules, 2019).

Test [1] concerns caspase-3. The test can be described thus: Competitive ABPP with UV pre-activation of the probes. In kind it is biochemical. To be noted: compound irradiated at 365 nm for 30 min, light source removed, then added to caspase-3 for 30 min; fluorescent ABP read-out. How it is done: Compounds were irradiated with UV light of 365 nm for 30 min and after removal of the light source added to caspase-3. Residual caspase activity was measured by using a fluorescent caspase ABP as in our previous experiments above.
Caspase-3, produced in E. coli and purified as described before, was reacted in PBS with 1 mM DTT. Samples were combined with the indicated probe and irradiated with a handheld UV lamp at 365 nm for 30 min at room temperature. For competition experiments with ‘pre-activation,’ the indicated probes were irradiated for 30 min prior to addition to caspase-3, and incubated for an additional 30 min. Next, ABP 13 was added (final concentration 1 μM) to label residual caspase-3 activity. The samples were incubated for 30 min at room temperature, after which 1/3rd volume of 4× Laemmli buffer was added. Samples were heated at 95 °C for 2 min and resolved by 15% SDS-PAGE. Gels were scanned using a Typhoon Trio+ fluorescent scanner with excitation at 532 nm and an emission filter of 580 nm. Gel images were processed with ImageJ (background subtraction with rolling ball radius of 50 pixels and automated contrast adjustment).
(§1) Figure 3 Non-covalent inhibition of caspase-3 by compounds 9 and 10. (A) Fluorescent labeling of caspase-3 by ψ(CH2NH) peptides 9–10 and triazolo peptides 11–12. […] (B) Deconvoluted ESI-MS of caspase-3. (C) Deconvoluted ESI-MS of caspase-3 after incubation with covalent activity-based probe (ABP) 13. Note that the active site, located on the large subunit, is modified. (D) Deconvoluted ESI-MS of caspase-3 after irradiation in the presence of benzophenone ψ(CH2NH) 10a, not resulting in covalent modification. […] (F) Structures of ψ(CH2NH) peptides 14 and 15 without photocrosslinker. (G) UV irradiation of ψ(CH2NH) peptides 14 and 15 in the presence of benzophenone leads to inhibition of caspase-3, as monitored by competitive ABPP. […] Ac-DEVD-aldehyde (100 nM) was used as a control compound, whereas 9a and 10a (10 μM) were irradiated for 10 min and reacted with sodium bisulfite for an additional 20 min before 30 min incubation with caspase-3 and read-out with a fluorescent caspase ABP.

Test [2] deals with caspase-3. Nature of the test: ESI-MS on purified caspase-3 (covalent modification). In kind it is binding. To be noted: 10a under irradiation at 365 nm. The text has this: Our probes were designed to irreversibly photocrosslink to caspase-3. In order to show covalent complex formation, we made use of the alkyne function located at the N-terminus of all probes by installing a tetramethyl rhodamine fluorophore (TAMRA) via copper(I)-catalyzed azide alkyne cycloaddition. […] To exclude that this observation was due to our gel-based read-out, we also performed mass spectrometry experiments. […] This mass shift corresponded to the covalent modification (Figure 3C).
Intact proteins were analyzed on an orbitrap Fusion Lumos mass spectrometer equipped with a nanoelectrospray ion source (Thermo Fischer, Dreieich, Germany). Sample desalting was performed using Amicon Ultra-0.5 3K NMWL centrifugal filters (Merck Millipore, Darmstadt, Germany) according to the manufacturer’s protocol and samples were brought to a final concentration of approx. 1 pmol/µL (in 25% MeOH and 0.5% formic acid). […]
Figure 3 Non-covalent inhibition of caspase-3 by compounds 9 and 10. […] (G) UV irradiation of ψ(CH2NH) peptides 14 and 15 in the presence of benzophenone leads to inhibition of caspase-3, as monitored by competitive ABPP. […] Ac-DEVD-aldehyde (100 nM) was used as a control compound, whereas 9a and 10a (10 μM) were irradiated for 10 min and reacted with sodium bisulfite for an additional 20 min before 30 min incubation with caspase-3 and read-out with a fluorescent caspase ABP.

In test [3] the test system is caspase-3. Nature of the test: Competitive ABPP with bisulfite aldehyde quenching. Format: biochemical. To be noted: 10 μM, irradiated 10 min, reacted with 10 mM NaHSO3 for 20 min, then 30 min with caspase-3, fluorescent ABP read-out.
From the text: The presence of a ψ(CH2NH) peptide with benzophenone or UV irradiation alone was not sufficient for inhibition, but all needed to be present to block the caspase-3 active site (Figure 3G,H). We hypothesized that the active species is a peptide aldehyde, formed by oxidation of the ψ(CH2NH) moiety (see also discussion in Section 3). To support this hypothesis, we performed an experiment in which this aldehyde was trapped by sodium bisulfite, forming a sodium bisulfite adduct.
Compounds were incubated with or without irradiation (10 min) in PBS with or without 10 mM NaHSO3 and incubated for another 20 min before addition to caspase-3. After 30 min, ABP 13 was added (final concentration 1 μM) to label residual caspase activity. The samples were incubated for 30 min at room temperature, after which 1/3rd volume of 4× Laemmli buffer was added. Samples were processed in the same way as under Section 4.4.1.
as §1

Consider “Hexynoyl-Asp-Glu-Val-Aspψ(CH2NH)-Ala-Bpa-NH2 [10a]”, for which the “Inhibition of caspase-3 after UV pre-activation of compound” value in the test with caspase-3 [1] was “still inhibited”. In addition, in the test on caspase-3 [2], the “Covalent modification of caspase-3 (mass shift, ESI-MS)” value was “did not reveal any modification”. Also, in the test with caspase-3 [3], the “Inhibition of caspase-3 by irradiated sample exposed to sodium bisulfite” value was “lose their inhibitory capacity”.
